Structures can show the parent of a compound that is named as a salt. Where two headings read alike, the source gives them in different places.
Columns and labels:
Pim-3 = Pim-3 (Homo sapiens (Human), UniProt Q86V86); assay: ADP-Glo Kinase Assay, Pim-3; assay type: biochemical; details: 1 μM compound; for inhibition at 1 µM: read-out: Pim-3 % INH (1 μM)
Procedure: (§1) Compounds of the present invention were tested for their inhibitory activity against Pim-1, Pim-2, Pim-3, Flt3 wt, Flt3 ITD, CDK2/E and DYRK1. The testing of the compounds was carried out using the ADP-Glo™ Kinase Assay from Promega Corporation (Madison, Wis., USA).
(§2) The ADP-Glo™ Kinase Assay is a luminescent ADP detection assay to measure kinase activity by quantifying the amount of ADP produced during a kinase reaction. The kinase assay is performed in kinase assay buffer (5 mM MOPS, pH 7.5, 5 mM MgCl2, 0.4 mM EDTA, 1.5 mM DTT). Test samples initially dissolved in DMSO at 10 mM were diluted with the assay buffer to 1000 nM. A 30 μL volume/well of a mixture of substrates containing ATP (final ATP concentration in each kinase assay was equal to its apparent ATP Km).
(§3) The assay was performed in two steps: first, after the kinase reaction, an equal volume of ADP-Glo™ Reagent was added to terminate the kinase reaction and deplete the remaining ATP. Second, the Kinase Detection Reagent was added to simultaneously convert ADP to ATP and allowed the newly synthesized ATP to be measured using a luciferase/luciferin reaction. The luminescent signal generated was proportional to the ADP concentration produced and was correlated with kinase activity. A microplate spectrophotometer (Synergy 2 multi-mode microplate reader [BioTek]) was used for detecting the luminescence. The data was normalized and the percent of inhibition was obtained according to the following equation: […]

HEL92 cells = assay: Growth inhibition, MTS assay, HEL92; assay type: cell-based, Human; details: MTS cell viability, read-out: HEL92 ED50
HepG2 cells = assay: Growth inhibition, MTS assay, HepG2; assay type: cell-based, Human; details: MTS cell viability, read-out: HepG2 ED50
Pim-1 = Pim-1 (Homo sapiens (Human), UniProt P11309); assay: ADP-Glo Kinase Assay, Pim-1; assay type: biochemical; details: 1 μM compound; for inhibition at 1 µM: read-out: Pim-1 % INH (1 μM)
Pim-1, sequence (P11309 whole entry): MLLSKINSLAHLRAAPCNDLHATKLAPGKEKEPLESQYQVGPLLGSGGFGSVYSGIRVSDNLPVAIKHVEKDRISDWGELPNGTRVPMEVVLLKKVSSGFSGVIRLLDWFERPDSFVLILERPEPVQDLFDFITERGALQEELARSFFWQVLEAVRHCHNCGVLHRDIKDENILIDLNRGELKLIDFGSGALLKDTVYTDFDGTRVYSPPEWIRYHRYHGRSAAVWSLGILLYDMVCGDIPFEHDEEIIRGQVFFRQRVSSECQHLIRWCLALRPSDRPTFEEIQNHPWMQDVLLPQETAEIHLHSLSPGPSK
In short: (§4)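 Buffer was MOPS 5 mM (pH 7.5) with MgCl2, EDTA and DTT; ATP set at apparent Km per kinase. Compounds were diluted in assay buffer to 1000 nM. Kinase-generated ADP was converted to luciferase signal and normalised to percent inhibition.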

DYRK1 = DYRK1 (Homo sapiens (Human), UniProt Q13627); assay: ADP-Glo Kinase Assay, DYRK1; assay type: biochemical; details: 1 μM compound; for inhibition at 1 µM: read-out: DYRK1A % INH (1 μM)
In short: as §4

CDK2/E = CDK2/E (Homo sapiens (Human), UniProt P24941); assay: ADP-Glo Kinase Assay, CDK2/E; assay type: biochemical; details: 1 μM compound; for inhibition at 1 µM: read-out: CDK2/E % INH (1 μM)
Procedure: as §1, §2, §3

MV4-11 cells = assay: Growth inhibition, MTS assay, MV4-11; assay type: cell-based, Human; details: MTS cell viability, read-out: MV4-11 ED50
SW-480 cells = assay: Growth inhibition, MTS assay, SW-480; assay type: cell-based, Human; details: 72 hours, MTS cell viability, read-out: SW-480 ED50
Description: The following cell lines, were obtained and used in tests as outlined below: • Human myelomonocytic, biphenotypic leukemia MV4-11 cells (harboring a Flt3-ITD mutation); • Human Acute Myeloid Leukemia MOLM16 cells; • Human Acute Myeloid Leukemia MOLM13 cells (harboring a Flt3-ITD mutation); • Human Myeloid Leukemia KG-1 cells; • Human erythroleukemia HEL92 cells; • Human mantle cell lymphoma Jeko-1 cells; • Human hepatocellular carcinoma HepG2 cells; and • Human colon adenocarcinoma SW-480 cells.
The assays were carried out according to the following protocol, which is described as an example for the MV4-11 cells:
Ten thousand MV4-11 cells were inoculated into each well of a 96-well microplate (manufactured by Corning Corp.) using Iscove's MDM medium (culture medium) containing 10% fetal calf serum (FCS). The same day, a dimethyl sulfoxide (DMSO) solution of each test compound prepared in a concentration of 10 mmol/L was further diluted with DMSO to the desired concentrations (0.1, 0.5, 1, 2.5, 5 and 10 micromol/L), and the diluted solution was added to each well. The individual wells were further cultured in 5% carbon dioxide at 37° C. for 72 hours. […] Briefly, 10 μl MTS (3-(4,5-Dimethyl-2-thiazolyl)-5-(carboxymethoxyphenyl)-2-(4-sulfophenyl)-2H-tetrazolium was added to each well, and culturing was performed in 5% carbon dioxide at 37° C. for 2 hours. After this incubation and using a microplate spectrophotometer (Synergy 2 multi-mode microplate reader (BioTek)), the absorbance of each well was measured at 490 nm. The value for cells not incubated with a test compound was designated as 100%. By comparing these values with the absorbance difference obtained at the well in which each test compound was added, the cell viability (% viability) after treatment with the test compound was calculated.

Pim-2 = Pim-2 (Homo sapiens (Human), UniProt Q9P1W9); assay: ADP-Glo Kinase Assay, Pim-2; assay type: biochemical; details: 1 μM compound; for inhibition at 1 µM: read-out: Pim-2 % INH (1 μM)
Pim-2, sequence (Q9P1W9 whole entry): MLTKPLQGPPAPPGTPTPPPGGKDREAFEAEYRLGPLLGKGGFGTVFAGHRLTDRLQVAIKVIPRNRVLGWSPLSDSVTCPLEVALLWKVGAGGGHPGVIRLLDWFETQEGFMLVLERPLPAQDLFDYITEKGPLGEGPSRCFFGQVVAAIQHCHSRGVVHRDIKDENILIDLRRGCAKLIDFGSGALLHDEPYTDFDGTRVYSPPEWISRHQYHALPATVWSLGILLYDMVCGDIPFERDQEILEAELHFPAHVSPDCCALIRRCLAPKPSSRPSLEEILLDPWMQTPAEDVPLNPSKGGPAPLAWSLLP
Procedure: as §1, §2, §3

FLT3wt = FLT3wt (Homo sapiens (Human), UniProt P36888); assay: ADP-Glo Kinase Assay, Flt3 wt; assay type: biochemical; details: 1 μM compound; for inhibition at 1 µM: read-out: Flt3wt % INH (1 μM)
FLT3wt, sequence (P36888 27-993): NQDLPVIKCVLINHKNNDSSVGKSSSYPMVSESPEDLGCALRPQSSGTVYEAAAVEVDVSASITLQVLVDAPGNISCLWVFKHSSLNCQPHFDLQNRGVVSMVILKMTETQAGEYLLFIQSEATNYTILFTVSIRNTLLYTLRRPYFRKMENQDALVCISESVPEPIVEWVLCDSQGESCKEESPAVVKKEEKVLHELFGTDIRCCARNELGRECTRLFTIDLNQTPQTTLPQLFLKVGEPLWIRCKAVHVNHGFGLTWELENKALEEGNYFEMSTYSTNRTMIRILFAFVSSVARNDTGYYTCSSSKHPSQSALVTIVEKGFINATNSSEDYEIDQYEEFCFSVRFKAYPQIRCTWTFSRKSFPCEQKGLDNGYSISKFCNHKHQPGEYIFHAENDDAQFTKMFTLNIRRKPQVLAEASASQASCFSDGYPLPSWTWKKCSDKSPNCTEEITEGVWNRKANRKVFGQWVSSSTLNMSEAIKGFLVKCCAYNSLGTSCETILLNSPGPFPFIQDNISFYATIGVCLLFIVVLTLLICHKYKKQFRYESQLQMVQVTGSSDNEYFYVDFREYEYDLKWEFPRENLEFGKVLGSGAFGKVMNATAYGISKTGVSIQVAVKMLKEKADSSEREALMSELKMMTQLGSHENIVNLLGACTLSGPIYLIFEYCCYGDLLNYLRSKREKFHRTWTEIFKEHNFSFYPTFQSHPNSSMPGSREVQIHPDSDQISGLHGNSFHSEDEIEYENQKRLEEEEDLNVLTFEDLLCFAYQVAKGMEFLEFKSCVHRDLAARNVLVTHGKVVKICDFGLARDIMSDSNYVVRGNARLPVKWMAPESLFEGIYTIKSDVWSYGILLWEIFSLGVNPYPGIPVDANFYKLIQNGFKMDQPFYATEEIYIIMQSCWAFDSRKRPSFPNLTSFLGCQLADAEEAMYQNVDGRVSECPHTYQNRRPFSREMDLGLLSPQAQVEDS
In short: as §4

MV4-11 xenograft = MV4-11 xenograft in immunocompromised mice; assay type: in vivo
Description: Several compounds of the present invention have been studied in a xenograft in mice, an in vivo tumor transplantation model used to investigate the factors involved in malignant transformation, invasion and metastasis, as well as to examine response to therapy. For the purpose of acceptance of donor leukemic cells (MV4-11 or MOLM16 cells), immunocompromised mice were used, namely particularly severely compromised immunodeficient mice (NOD/scid, SCID/beige). When tumors developed size of approx. 50-200 mm^3, the compounds as indicated below in Tables 3 and 3a were administered orally every day for 2-3 weeks, in once a day (QD) or twice a day (BID) schedule. During the course of the experiment, the mice were monitored and the following two parameters were measured: the tumor growth inhibition (TGI) factor as a measure of therapeutic efficacy and the body weight change (ΔBW) factor as a measure of possible compound toxicity. The results are depicted in Tables 3 and 3a.
Next, compound 26A was evaluated in a xenograft study of acute myeloid leukemia (MV-4-11), alone or in a combinational treatment with Cytarabine in vivo (Table 3b; FIG. 6). Compound 26A was tested in two doses (50 and 25 mg/kg) and administered twice a day (BID); Cytarabine was administered at dose of 50 mg/kg three times in a week (TIW). During 15 days of compound administration dose-dependent anti-cancer activity of compound 26A (administered alone) was shown. Tumor growth inhibition reached −82% and −77%, respectively.

[1] = MV4-11 xenograft, oral, 150 mg/Kg QD
[2] = MV-4-11 xenograft, Cytarabine 50 mg/Kg TIW

Structure (SMILES) | inhibition at 1 µM (Pim-3) [%] | IC50 (SW-480 cells; Homo sapiens, SW480) [µM] | inhibition at 1 µM (Pim-2) [%] | IC50 (HepG2 cells; Homo sapiens, HepG2, 72 h) [µM] | inhibition at 1 µM (Pim-1) [%] | inhibition at 1 µM (DYRK1) [%] | inhibition at 1 µM (CDK2/E) [%] | IC50 (MV4-11 cells; Homo sapiens, MV4-11, 72 h) [µM] | inhibition at 1 µM (FLT3wt) [%] | IC50 (HEL92 cells; Homo sapiens, 72 h) [µM] | other results
CCn1c(N2CCCN(C)CC2)nc2c([N+](=O)[O-])c(Br)c(Br)cc21 [Example 22M, 5,6-dibromo-1-ethyl-2-(4-methyl-1,4-diazepan-1-yl)-4-nitro-1H-1,3-benzodiazole] | 29 | 4.7 | 18 | 5 | 74 | – | < 5 | 3.7 | < 5 | 6.5 | –
CC(C)n1c(N2CC[C@H](N)C2)nc2c([N+](=O)[O-])c(Br)c(Br)cc21 [Example 1AZ] | – | – | – | – | – | – | – | – | – | – | Pim-3 % INH (1 μM) (Pim-3): 94%; IC50 (HEL92 cells; 72 hours): 2.6 µM; IC50 (HepG2 cells; 72 hours): 2.2 µM; TGI (tumor growth inhibition) (MV4-11 xenograft; [1]): 76%; ΔBW (body weight change) (MV4-11 xenograft; [1]): −0.2%; TGI (tumor growth inhibition) (MV4-11 xenograft; MV4-11 xenograft, oral, doses as in Table 3): more than 70%; Pim-1 % INH (1 μM) (Pim-1): >95%; DYRK1A % INH (1 μM) (DYRK1): 72%; CDK2/E % INH (1 μM) (CDK2/E): 38%; IC50 (MV4-11 cells; 72 hours): 1.1 µM; Pim-2 % INH (1 μM) (Pim-2): 70%; Flt3wt % INH (1 μM) (FLT3wt): 48%
Nc1ccn([C@@H]2O[C@H](CO)[C@@H](O)[C@@H]2O)c(=O)n1 [Cytarabine, cytarabine, reference compound] | – | – | – | – | – | – | – | – | – | – | TGI (tumor growth inhibition) (MV4-11 xenograft; [2]): 60%; ΔBW (body weight change) (MV4-11 xenograft; [2]): −2%
CCn1c(N2CCCC(N)C2)nc2c([N+](=O)[O-])c(Br)c(Br)cc21.Cl (centres unmarked) [Example 1F] | – | – | – | – | – | – | – | – | – | – | Pim-3 % INH (1 μM) (Pim-3): 83%; IC50 (HEL92 cells; 72 hours): 5.0 µM; IC50 (HepG2 cells; 72 hours): 3.3 µM; Pim-1 % INH (1 μM) (Pim-1): 90%; DYRK1A % INH (1 μM) (DYRK1): 20%; CDK2/E % INH (1 μM) (CDK2/E): <5%; IC50 (MV4-11 cells; 72 hours): 2.3 µM; IC50 (SW-480 cells): 3.3 µM; Pim-2 % INH (1 μM) (Pim-2): 36%; Flt3wt % INH (1 μM) (FLT3wt): 6%
C#CCn1c(N2CCNCC2)nc2c([N+](=O)[O-])c(Br)c(Br)cc21 [Example 2B, 5,6-dibromo-4-nitro-2-(piperazin-1-yl)-1-(prop-2-yn-1-yl)-1H-1,3-benzodiazole hydrochloride] | – | 5.5 | – | 1.4 | 53 | 61 | < 5 | 3.1 | < 5 | 6.7 | –
CCn1c(NCCCN)nc2c([N+](=O)[O-])c(Br)c(Br)cc21 [Example 1C] | 70 | 7.4 | 28 | 4.1 | 85 | – | < 5 | 3.1 | < 5 | > 10 | –
CCn1c(N2CCNC(C)(C)C2)nc2c([N+](=O)[O-])c(Br)c(Br)cc21 [Example 22W, 5,6-dibromo-2-(3,3-dimethylpiperazin-1-yl)-1-ethyl-4-nitro-1H-1,3-benzodiazole] | 57 | 4.9 | – | 1.5 | 80 | – | < 5 | 1.7 | < 5 | 9.5 | –
CCn1c(N2CCNC(C)C2)nc2c([N+](=O)[O-])c(Br)c(Br)cc21 (centres unmarked) [Example 22X, 5,6-dibromo-1-ethyl-2-(3-methylpiperazin-1-yl)-4-nitro-1H-1,3-benzodiazole] | 56 | 5 | – | 2.3 | 74 | 39 | < 5 | 0.7 | < 5 | 8.7 | –

Continued, in another order:

inhibition at 1 µM (Pim-3) [%] | IC50 (SW-480 cells; Homo sapiens, SW480) [µM] | inhibition at 1 µM (Pim-2) [%] | IC50 (HepG2 cells; Homo sapiens, HepG2, 72 h) [µM] | inhibition at 1 µM (Pim-1) [%] | inhibition at 1 µM (DYRK1) [%] | inhibition at 1 µM (CDK2/E) [%] | IC50 (MV4-11 cells; Homo sapiens, MV4-11, 72 h) [µM] | inhibition at 1 µM (FLT3wt) [%] | Structure (SMILES) | IC50 (HEL92 cells; Homo sapiens, 72 h) [µM] | other results
38 | 3.4 | 25 | – | – | – | – | – | – | CCn1c(NC2CCC(N)CC2)nc2c([N+](=O)[O-])c(Br)c(Br)cc21 (centres unmarked) [Example 1H] | – | IC50 (HEL92 cells; 72 hours): 7.6 µM; IC50 (HepG2 cells; 72 hours): 2.7 µM; Pim-1 % INH (1 μM) (Pim-1): 58%; DYRK1A % INH (1 μM) (DYRK1): 9%; CDK2/E % INH (1 μM) (CDK2/E): <5%; IC50 (MV4-11 cells; 72 hours): 2.3 µM; Flt3wt % INH (1 μM) (FLT3wt): <5%
> 95 | 3.3 | 58 | 1.6 | > 95 | 47 | 32 | 1.2 | 21 | CC(C)n1c(NCCCN)nc2c([N+](=O)[O-])c(Br)c(Br)cc21 [Example 1L] | 5.7 | –
– | 1.4 | – | 1.4 | – | – | – | 2.8 | – | CCn1c(NCC2CCN(CCN(C)C)C2)nc2c([N+](=O)[O-])c(Br)c(Br)cc21 (centres unmarked) [Example 22O, 5,6-dibromo-N-({1-[2-(dimethylamino)ethyl]pyrrolidin-3-yl}methyl)-1-ethyl-4-nitro-1H-1,3-benzodiazol-2-amine] | 2.5 | –
– | 2.5 | – | 2.7 | – | – | – | 2.9 | – | CCn1c(NCCCN2CCCC2)nc2c([N+](=O)[O-])c(Br)c(Br)cc21 [Example 22P, 5,6-dibromo-1-ethyl-4-nitro-N-[3-(pyrrolidin-1-yl)propyl]-1H-1,3-benzodiazol-2-amine] | 5.9 | –
34 | 3.1 | – | 1.3 | 71 | 25 | < 5 | 2.3 | 10 | C#CCn1c(NCCCN)nc2c([N+](=O)[O-])c(Br)c(Br)cc21 [Example 2G, N-(3-aminopropyl)-5,6-dibromo-4-nitro-1-(prop-2-yn-1-yl)-1H-1,3-benzodiazol-2-amine hydrochloride] | 6 | –

From US10174013B2, “Benzimidazole derivatives as kinase inhibitors” (SELVITA S.A., priority 2012, dated 2019)
